Laboratory results from paper PMC3774728, “Identification of the Plant Compound Geraniin as a Novel Hsp90 Inhibitor” (PLoS ONE, 2013).
Read-outs that look alike come from different tables or passages of the source. Blank lines part the entries; values can stand above or below the molecule they belong to.

Legend:
recombinant Hsp90α = biological target: T1, recombinant Hsp90α (Homo sapiens, UniProt P07900); assay: Surface plasmon resonance binding to immobilized Hsp90α
T1 construct: purchased Assay Designs (Ann Arbor, MI, USA)
Protocol: SPR analyses were carried out according to our previously published procedures, [23]. Briefly, SPR analyses were performed using a Biacore 3000 optical biosensor equipped with research−grade CM5 sensor chips (GE Healthcare). Using this platform, two separate recombinant Hsp90α surfaces, a BSA surface and one unmodified reference surface were prepared for simultaneous analyses. Proteins (100 µg mL^−1 in 10 mM CH3COONa, pH 5.0) were immobilized on individual sensor chip surfaces at a flow rate of 5 µL min^−1 using standard amine−coupling protocols to obtain densities of 8–12 kRU. Polyphenols, as well as 17-AAG and hardwickiic acid (HA), were dissolved in 100% DMSO to obtain 4 mM solutions, and diluted 1∶200 (v/v) in PBS (10 mM NaH2PO4, 150 mM NaCl, pH 7.4) to a final DMSO concentration of 0.5%. […] Binding experiments were performed at 25°C, using a flow rate of 50 µL min^−1, with 60 s monitoring of association and 300 s monitoring of dissociation. Simple interactions were suitably fitted to a single−site bimolecular interaction model (A+B = AB), yielding a single K D. Sensorgram elaborations were performed using the BIAevaluation software provided by GE Healthcare.
Putative interactions of different plant-derived phenolic compounds with Hsp90α were evaluated by a SPR-based approach.

[1] = biological target: T2, Hsp90α chaperone activity (Homo sapiens, UniProt P07900); assay: Citrate synthase thermal-induced aggregation assay (chaperone activity); type: biochemical; conditions: 0.075 µM CS, 0.075 µM Hsp90α, 0.3 µM ATP, four-fold molar excess (0.3 µM) compound, 43°C
T2 construct: purchased Assay Designs (Ann Arbor, MI, USA)
Protocol: Chaperone activity was evaluated by monitoring the thermal−induced aggregation of citrate synthase (CS) (0.075 µM), as reported elsewhere, in the absence or presence of a stoichiometric amount of Hsp90α and 0.3 µM ATP, and with or without a four−fold molar excess of each testing compound. Aggregation was initiated by unfolding CS incubating the protein in 40 mM HEPES–KOH, pH 7.5 at 43°C. Aggregation was monitored by measuring light scattering at right angles with the Perkin Elmer LS 55 fluorimeter in stirred and thermostatted quartz cells. Both the emission and excitation wavelengths were set at 500 nm, while the band–pass was 2 nm. Kinetics traces reported are the averages of two separate measurements.
Figure 3 Inhibition of Hsp90α activity. ATPase activity of the chaperone was evaluated in the presence of different concentrations of geraniin, 17-AAG and HA (A). Data are reported as the residual ATPase activity (%) compared to that observed for an untreated sample. Data are the mean of three independent experiments performed in triplicate and were analyzed by t test (HA vs testing compounds): The error bar represents the standard deviation of nine measurements, while * indicates significance at P<0.01. Aggregation kinetics of citrate synthase (CS) at 43°C determined by light scattering (B). […]

HeLa cells [2] = assay: Cell cycle and hypodiploidy by flow cytometry (PI), HeLa; type: cell-based, human; conditions: 24 h, geraniin 5 µM, 17-AAG 0.2 µM
Protocol: (§1) Cell DNA content was measured by propidium iodide (PI) incorporation into permeabilized cells, as described by Nicoletti et al.. Briefly, the cells were harvested after geraniin or 17-AAG treatments were washed with cold PBS and incubated with a PI solution (0.1% sodium citrate, 0.1% Triton X-100 and 50 µg mL^−1 of prodium iodide, Sigma-Aldrich, 10 µg/ml Rnase A) for 30 min at room temperature. Data from 10.000 events per sample were collected by a FACScalibur flow cytometer (Becton Dickinson, San José, CA) and cellular debris was excluded from analysis by raising the forward scatter threshold. The percentage of cells in the sub G0/G1 phase, apoptotic fraction, was quantified using CellQuest software (Becton Dickinson). The distribution of cells in G0/G1, S, G2/M phases was determined using ModFit LT cell cycle analysis software (Becton Dickinson). Results were expressed as a mean ± SD of three experiments performed in triplicate.
(§2) Figure 6 Effects of geraniin and 17-AAG on cell cycle progression. Percentage of cell cycle stages was analyzed by flow cytometry, (A) PI-stained viable Jurkat cells treated with DMSO, 0.7 µM geraniin or 10 µM 17-AAG for 24 h.

HeLa cells [3] = assay: MTT cell viability, HeLa; type: cell-based, human; conditions: 24 h
Protocol: (§3) To ensure logarithmic growth, cells were subcultured every two days. As control cells, human peripheral blood mononuclear cells (PBMC) were isolated from buffy coats of healthy donors (kindly provided by the Blood Center of the Hospital of Battipaglia, Salerno, Italy) by using standard Ficoll−Hypaque gradients. […] Proliferation of PBMC was induced by phytohemagglutinin (PHA) (10 µg mL^−1). Tumor and PBMC cells were treated with different concentrations of geraniin or 17-AAG to evaluate their cytotoxic effects. Stock solutions of geraniin (50 mM in DMSO) and 17-AAG (10 mM in DMSO) were stored a −20°C in the dark and diluted just before addition to the sterile culture medium. In all the experiments, the final concentration of DMSO was 0.10% (v/v).
(§4) Jurkat (2×10^4/well) and HeLa (5000/well) cells were seeded in triplicate in 96 well−plates and incubated for 24 h in the absence or presence of different concentrations of geraniin (between 0,5 µM to 50 µM) or 17-AAG (between 0,5 nM to 10 µM).
(§5) The number of viable cells was determined by using a [3–4,5-dimethyldiazol-2-yl]-2,5-diphenyl tetrazolium bromide (MTT, Sigma-Aldrich) conversion assay, according to the method described by Mosmann. […] The absorbance was measured with a microplate reader (Titertek multiskan MCC7340, LabSystems, Vienna, VA, USA) equipped with a 620 nm filter. […]

[4] = tested on: PHA-stimulated proliferating PBMC; assay: Hypodiploidy/necrosis by flow cytometry, PHA-stimulated PBMC; type: cell-based, human; conditions: untreated cells 1.5±0.8%
Protocol: Jurkat and HeLa (epithelial carcinoma) cells, obtained from Cell Bank in GMP-IST (Genova, Italy) were maintained in RPMI 1640 medium or Dulbecco’s modified Eagle medium (DMEM), respectively, supplemented with 10% (v/v) FBS, 2 mM L−glutamine and antibiotics (100 U mL^−1 penicillin, 100 µg mL^−1 streptomycin) purchased from Invitrogen (Carslbad, CA, USA), at 37°C in humidified atmosphere with 5% CO2. To ensure logarithmic growth, cells were subcultured every two days. As control cells, human peripheral blood mononuclear cells (PBMC) were isolated from buffy coats of healthy donors (kindly provided by the Blood Center of the Hospital of Battipaglia, Salerno, Italy) by using standard Ficoll−Hypaque gradients. Freshly isolated PBMC contained 92.8±3.1% live cells. Proliferation of PBMC was induced by phytohemagglutinin (PHA) (10 µg mL^−1). […]
Cell DNA content was measured by propidium iodide (PI) incorporation into permeabilized cells, as described by Nicoletti et al.. […] The percentage of cells in the sub G0/G1 phase, apoptotic fraction, was quantified using CellQuest software (Becton Dickinson). The distribution of cells in G0/G1, S, G2/M phases was determined using ModFit LT cell cycle analysis software (Becton Dickinson). Results were expressed as a mean ± SD of three experiments performed in triplicate.

[5] = tested on: PBMC (human Peripheral Blood Mononuclear Cells); assay: Cytotoxicity in PHA-stimulated proliferating PBMC; type: cell-based; conditions: 24 h, trypan blue, only at high doses
Protocol: as §3, with “Tumor and PBMC cells were treated with different concentrations of geraniin or 17-AAG to evaluate their cytotoxic effects.” left out
The number of viable cells was determined by using a [3–4,5-dimethyldiazol-2-yl]-2,5-diphenyl tetrazolium bromide (MTT, Sigma-Aldrich) conversion assay, according to the method described by Mosmann. Briefly, following the treatment, 25 µL of MTT (5 mg/mL in PBS) was added and the cells were incubated for additional 3 h at 37°C. Thereafter, cells were lysed and suspended with 100 µL of buffer containing 50% (v/v) N,N-dimethylformamide, 20% SDS (pH 4.5). The absorbance was measured with a microplate reader (Titertek multiskan MCC7340, LabSystems, Vienna, VA, USA) equipped with a 620 nm filter. Cell population growth inhibition was tested by cytometric counting (trypan blu exclusion).

Jurkat cells [6] = assay: Cell cycle and hypodiploidy by flow cytometry (PI), Jurkat; type: cell-based, human; conditions: 24 h, geraniin 0.7 µM, 17-AAG 10 µM
Protocol: as §1, §2

Jurkat cells [7] = assay: MTT cell viability, Jurkat; type: cell-based, human; conditions: 24 h
Protocol: as §3, §4, §5

[8] = SPR, immobilized Hsp90α, 25°C, single-site bimolecular model, 0.025-1 µM, read-out: KD

SMILES: COc1cc(-c2oc3cc(O)cc(O)c3c(=O)c2O)ccc1O [Compound 5]
Kd (recombinant Hsp90α): 0.748 ± 0.045 µM

SMILES: O=c1c(O)c(-c2ccc(O)cc2)oc2cc(O)cc(O)c12 [Compound 2]
Kd (recombinant Hsp90α; [8]): 4.83 ± 0.515 µM

SMILES: O=c1c(O)c(-c2ccc(O)c(O)c2)oc2cc(O)ccc12 [Compound 4]
Kd (recombinant Hsp90α; [8]): 5.33 ± 0.862 µM

SMILES: C=CCNC1=C2C[C@@H](C)C[C@H](OC)[C@H](O)[C@@H](C)/C=C(\C)[C@H](OC(N)=O)[C@@H](OC)/C=C\C=C(/C)C(=O)NC(=CC1=O)C2=O [Compound 17-AAG, 17-(allylamino)-17-demethoxygeldanamycin, reference compound]
cell cycle arrest (HeLa cells [2]): G1 and G2/M arrest
percentage of cells with hypodiploid nuclei (HeLa cells [2]): 11.6±0.5%
IC50 (HeLa cells [3]): 0.2 ± 0.3 µM
levels of hypodiploidy/necrosis [4]: 1.8±0.6%
cytotoxic effects in control PBMC [5]: Minimal cytotoxic effects
cell cycle arrest (Jurkat cells [6]): G1 and G2/M arrest
percentage of cells with hypodiploid nuclei (Jurkat cells [6]): 6.05±0.4%
IC50 (Jurkat cells [7]): 9.6 ± 0.15 µM

More lines, now with the values ahead:

Kd (recombinant Hsp90α; [8]): 2.21 ± 0.351 µM
SMILES: CC(=O)Oc1cc(OC(C)=O)c2c(=O)c(OC(C)=O)c(-c3ccc(OC(C)=O)c(OC(C)=O)c3)oc2c1 [Compound 6]

Kd (recombinant Hsp90α; [8]): 1.82 ± 0.242 µM
SMILES: O=C1c2c(O)cc(O)cc2OC(c2ccc(O)c(O)c2)C1O (stereo not shown) [Compound 34]

KD (recombinant Hsp90α; SPR, immobilized Hsp90α, 25°C, single-site bimolecular model, 0.025-1 µM): No binding
effect on citrate synthase aggregation kinetics in the presence of Hsp90α [1]: did not perturb the CS+Hsp90α curve
SMILES: C[C@@H]1CC[C@@]2(C)C(C(=O)O)=CCC[C@@H]2[C@@]1(C)CCc1ccoc1 [HA, hardwickiic acid, reference compound]

Kd (recombinant Hsp90α; [8]): 8.75 ± 0.735 µM
SMILES: O=c1cc(-c2ccc(O)cc2)oc2cc(O)cc(O)c12 [Compound 19]
